Reference: patent publication US12486229B2, “Indole derivative and application thereof” (SHANGHAI MEDICILON INC., priority 2020, dated 2025)

Experiments:
S1P1 = biological target: T1, S1P1 (Homo sapiens, UniProt P21453); experiment: S1P1 overexpression cell activity by β-arrestin assay (U2OS-EDG1); format: cell-based; settings: U2OS-EDG1 cells
T1 construct: host or cells: U2OS (human osteosarcoma) cell line, U2OS-EDG1
Procedure: The following experiments were conducted to detect the activity of the compound on S1P1 overexpression cells by β-arrestin assay. [table] [table] 3. Experimental Steps Day 1: Cell Seeding Plate and Compound Treatment • (1) Firstly, the compound was diluted by a 4-fold gradient into 10 concentration points from the concentration of 10 μM in the culture plate by using NL fluid transfer system, with 2 replicates at each concentration point. • (2) Cells were resuspended by using FreeStyle™ expression medium, and the cell density was adjusted to 7,500 cells per 40 μL suspension. The samples with test concentration were added into the well of the cell culture plate, and 40 μL cell suspension was added into the corresponding well. • (3) The above cell plates were incubated overnight in a CO2 incubator with 5% (volume fraction) at 37° C. Day 2: Detection and Data Analysis • (1) The buffer solution was prepared according to the preparation method in the instructions of LiveBLAser™-fluorescence resonance energy transfer B/G loading kit. • (2) 8 μL detection reagent was added to each well, which were shaken and mixed evenly for 1 minute, centrifugated at 1,000 rpm for 10 seconds, and incubated at 23° C. in dark for 2 hours. • 3) Detection was performed by multimode reader. • 4) The PrismDemo software was used to analyze the data and fit the curve. 4. Experimental Results

[1] = tested on: TNBS induced ulcerative colitis in rats; experiment: TNBS induced ulcerative colitis in rats; format: in vivo, rat; settings: for Colon length / Colon weight / Colon weight/colon length / Ulcer area: 3 mg/kg oral gavage once a day for 7 days, day 8; for General anatomical view of colon, from excellent to poor: 7 days administration, SASP 360, Example 3 and Etrasimod 3, Ozanimod 10 mg/kg; for Weight: 3 mg/kg oral gavage once a day; for Drug efficacy intensity (colon weight): oral gavage for 7 consecutive days, doses as given in ranking
Procedure: Preparation of molding agent: 5 mL TNBS and 8.953 mL anhydrous ethanol and 26.741 sterilized water for injection. • TNBS comes from Dalian Meilun Biotechnology Co., Ltd. • Source of SPF male SD rats: Shanghai Slake Experimental Animal Co., Ltd. • Animal age at the beginning of the experiment: 8 to 10 weeks; • Animal weight at the beginning of the experiment: about 250 g; • Adaptation time: 5 to 7 days; • Animals were fasted (only water) for 24 hours. After inhalation anesthesia with isoflurane, all rats were perfused with 0.5 mL TNBS ethanol solution per rat (18 mg TNBS/rat) via rectum with latex hose, with the length of the hose entering the rectum of about 8 cm. After withdrawing the hose, the rats remained under isoflurane anesthesia, and kept in the inclined state of hip elevation for 15 minutes.
The rats after modeling were randomly divided into 5 groups: model group, positive control group using drug sulfasalazine (SASP, 360 mg/kg), test substance group using the compound of Example 3 (3 mg/kg), test substance group using Etrasimod (3 mg/kg), test substance group using Ozanimod (10 mg/kg).
At 3 hours after modeling, the animals in each group were administrated with medicine solution by oral gavage (Table 1), 5 mL/kg body weight (10 mL/kg in sulfasalazine group), once a day, for 7 consecutive days, and the feces of the animals and whether there is death were observed every day. On the 8th day, the animals were killed under CO2 overdose anesthesia followed by being dissected, the entire colon tissue was extracted, the contents of the colon were cleaned after longitudinal dissection along the mesenteric side, the colon was weighed and measured for its length, the area of the ulcer was measured, and the general situation was observed and photos were taken. Finally, the colon was fixed in 10% formalin, and H&E staining and histopathological analysis (inflammation, goblet cells, lesion depth, ulcer degree, crypt abscess) were performed.
Wherein, the compound of Example 3 of the invention, purity: 99.74%. • Etrasimod, prepared according to the literature method (the second isomer of Example 1.29 in WO2010/011316A1), purity: 98.47%. • Ozanimod, prepared according to the literature method (compound 86 in WO2011/060392A1), purity: 99.78%. • Sulfasalazine enteric-coated tablets, produced by Shanghai Fuda Pharmaceutical Co., Ltd., 0.25 g/tablet. Enteric coated tablets show yellow to brownish yellow after the coating is removed. • Solutol: Beijing Fengli Jingqiu Pharmaceutical Co., Ltd. • Solvent preparation: • DMSO, Solutol and 0.9% sodium chloride solution were mixed according to the volume ratio of 5:10:85 to prepare the solvent.
Preparation of compound of Example 3 and Etrasimod solution: 27 mg of test substances were taken respectively and dissolved in 45 mL of solvent to obtain corresponding test substance solution.
Ozanimod: 90 mg Ozanimod was dissolved in 45 mL solvent to obtain Ozanimod solution.
Preparation of SASP solution: six sulfasalazine enteric-coated tablets after grinding were added to 41.7 mL 0.5% CMC-Na, and then dissolved by ultrasonic to obtain SASP solution.
Due to the excipient factor of SASP drug preparation, the concentration should not be too high when suspended in 0.5% CMC-Na, otherwise the suspension was uneven and the mobility was poor, so the dose volume of SASP was doubled compared with the compound of Example 3 and Etrasimod.

T1 sequence (P21453 whole entry): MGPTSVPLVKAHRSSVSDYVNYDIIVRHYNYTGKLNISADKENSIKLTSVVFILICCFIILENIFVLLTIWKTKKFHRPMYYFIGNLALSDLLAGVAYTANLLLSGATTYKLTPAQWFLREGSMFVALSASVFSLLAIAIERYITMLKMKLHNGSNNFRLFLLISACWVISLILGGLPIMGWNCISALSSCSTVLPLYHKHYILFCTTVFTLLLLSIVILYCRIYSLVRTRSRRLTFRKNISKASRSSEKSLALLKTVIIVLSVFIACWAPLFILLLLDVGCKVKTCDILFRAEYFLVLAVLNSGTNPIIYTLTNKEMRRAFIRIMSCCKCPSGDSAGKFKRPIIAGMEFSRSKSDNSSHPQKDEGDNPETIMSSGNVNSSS

Question: Which IC50 (S1P1) does the source give for `O=C(O)CCn1ccc2cc(OCc3ccc(C4CCCC4)c(C(F)(F)F)c3)cc(Cl)c21` [Compound of Example 3, 3-(7-chlorine-5-((4-cyclopentyl-3-(trifluoromethyl)benzyl)oxy)-1H-indole-1-yl)propionic acid] here?
Answer: 0.148 nM

Question: What about the Colon length [1] of the same compound?
Answer: 13.66 ± 0.63 cm

Question: What about the Colon weight [1] of the same compound?
Answer: 2.07 ± 0.17 g

Question: What about the Colon weight/colon length [1] of the same compound?
Answer: 0.15 g/cm

Question: And the Ulcer area [1]?
Answer: 53.87 ± 24.01 mm^2

Question: And the “General anatomical view of colon, from excellent to poor” value [1]?
Answer: group using compound of Example 3>group using sulfasalazine>group using Etrasimod>group using Ozanimod

Question: What about the Weight ([1]; Day 1) of the same compound?
Answer: 247 ± 0.55 g

Question: And the Weight ([1]; Day 2)?
Answer: 224.6 ± 0.51 g

Question: And the Weight ([1]; Day 3)?
Answer: 226.3 ± 0.85 g

Question: And the Weight ([1]; Day 4)?
Answer: 233.6 ± 1.45 g

Question: And the Weight ([1]; Day 5)?
Answer: 238.5 ± 1.57 g

Question: And the Weight ([1]; Day 6)?
Answer: 245 ± 1.74 g

Question: What about the Weight ([1]; Day 7) of the same compound?
Answer: 258.8 ± 1.61 g

Question: What about the Weight ([1]; Day 8) of the same compound?
Answer: 267.9 ± 1.44 g

Question: And the “Weight course compared with model group” value ([1]; SASP 360 mg/kg, Example 3 and Etrasimod 3 mg/kg, oral once a day)?
Answer: a certain tendency to inhibit the weight loss

Question: And the “Drug efficacy intensity (colon weight)” value [1]?
Answer: group using the compound of Example 3 (3 mg/kg)>group using Etrasimod (3 mg/kg)>group using sulfasalazine (360 mg/kg)>model group>group using Ozanimod (10 mg/kg)

Question: Which IC50 (S1P1) does the source give for `O=C(O)C[C@H]1CCc2c1[nH]c1ccc(OCc3ccc(C4CCCC4)c(C(F)(F)F)c3)cc21` [Etrasimod, reference compound] here?
Answer: 4.71 nM

Question: And the Colon length [1]?
Answer: 13.56 ± 0.54 cm

Question: And the Colon weight [1]?
Answer: 2.54 ± 0.25 g

Question: What about the Colon weight/colon length [1] of the same compound?
Answer: 0.19 g/cm

Question: And the Ulcer area [1]?
Answer: 177.97 ± 56.5 mm^2

Question: And the “General anatomical view of colon, from excellent to poor” value [1]?
Answer: group using compound of Example 3>group using sulfasalazine>group using Etrasimod>group using Ozanimod

Question: What about the Weight ([1]; Day 1) of the same compound?
Answer: 251.6 ± 0.5 g

Question: And the Weight ([1]; Day 2)?
Answer: 225.5 ± 0.56 g

Question: What about the Weight ([1]; Day 3) of the same compound?
Answer: 223.9 ± 0.94 g

Question: What about the Weight ([1]; Day 4) of the same compound?
Answer: 221.8 ± 1.51 g

Question: And the Weight ([1]; Day 5)?
Answer: 224.4 ± 1.73 g

Question: What about the Weight ([1]; Day 6) of the same compound?
Answer: 230.1 ± 2.04 g

Question: And the Weight ([1]; Day 7)?
Answer: 245.5 ± 1.85 g

Question: What about the Weight ([1]; Day 8) of the same compound?
Answer: 255.8 ± 1.6 g

Question: What about the “Drug efficacy intensity (colon weight)” value [1] of the same compound?
Answer: group using the compound of Example 3 (3 mg/kg)>group using Etrasimod (3 mg/kg)>group using sulfasalazine (360 mg/kg)>model group>group using Ozanimod (10 mg/kg)
